In US20240299353A1, “COMPOSITIONS AND METHODS FOR TREATING […] 5-MEO-DMT” (Alvarius Pharmaceuticals Ltd., priority 2021, published 2024):

Key:
ΔFosB = assay: Western blot of ΔFosB in brain regions, chronic cocaine ± 5-MeO-DMT; assay type: in vivo, Male Wistar rats
Text: (§1) Male Wistar rats aged 7 weeks were acclimatized to the facility for 1 week prior to the beginning of the study. […] Animals were euthanized 23- or 119-hours following vehicle or 5-MeO-DMT administration.
(§2) Following euthanasia brain regions of interest were isolated. Briefly, the olfactory bulbs were removed before the brain was placed in a rat brain matrix (FIG. 2A). Sterile blades were inserted at positions 2 and 3 (FIG. 2B) to extract a coronal slice containing the Bregma+˜0.2-+˜2.2 coordinates (FIG. 2C). From this tissue slice a blunted 12 G needle was used to punch dissect the NAc and dorsal striatum (DS) (FIG. 2D-2E) identified using the rat brain atlas (Panxinos and Watson 2nd edition). The PFC, hippocampus (Hip) and amygdala (Amyg) were then blunt dissected (FIG. 3A-3D). All regions were frozen in liquid nitrogen and stored at −80° C. until processed.
(§3) These treatment groups were used for the molecular assessment of addiction-linked markers.
(§4) Determination of protein concentration—a bicinchoninic acid assay (BCA, ThermoFisher) was conducted to determine the total protein concentration in tissue lysates following manufacturer's instructions. Briefly, bovine serum albumin (BSA) standards were prepared in a serial dilution (0-2.0 mg protein/ml) and 200 μl working reagent (50:1, reagent A: reagent B) was added to each of the standards and samples in a 96 well plate (Greiner). For tissue lysates a 1:10 dilution was performed with cell lysis buffer to ensure absorbance values lay within the working range established by the standards. All samples and standards were added in duplicate. The plate was covered and incubated for 30 mins at 37° C. before absorbance was read at 562 nm on a plate reader (SpectraMax M3). The absorbance values were used to form a standard curve of known protein concentrations and protein concentration of samples were derived using the equation of the line. All samples were standardized to the lowest protein concentration using distilled H20 (dH2O).
(§5) SDS-PAGE and Western Blotting—Following equalisation of protein concentrations, 6× sample loading buffer (15% SDS, 15% […], 50% glycerol, 0.01% bromophenol blue, […]) was added to each sample using a dilution factor of 1:5 of the total volumes before boiling at 100° C. for 5 mins. Samples were stored at −20° C. until use. One dimensional sodium-dodecyl-sulphate polyacrylamide gel electrophoresis (SDS-PAGE) was used for protein separation based on molecular weight. The percentage of acrylamide in the resolving or stacking gel was determined by the molecular weight of the protein of interest. In this instance all gels consisted of a 5% stacking gel and a 10% resolving gel with the exception of mGluR5, G9a (8%) and H3K9Me2 (12%). 20 μg of protein was loaded and resolved using SDS-PAGE. Gel electrophoresis was conducted at 80V while the protein was in the stacking gel, once it migrated to the resolving gel the voltage was increased to 120V and ran for 90 mins. Samples were transferred to a 0.45 μm polyvinylidene difluoride (PVDF) membrane (Analab) for 1 hour at 100V and blocked in 5% milk blocking solution made in tris-buffered saline containing tween®-20 (TBS-T, Sigma) for 90 mins. Primary antibodies (FIG. 5) were diluted in 5% BSA in TBS-T and incubated with membranes overnight at 4° C. or for 2 hours at room temperature. After incubation with primary antibodies the membranes were washed in TBS-T for 4×10 minutes before incubation with 1:2000 anti-rabbit and 1:2000 anti-mouse Alexa Fluro® conjugated secondary antibodies (Invitrogen) in 2% milk for 1 hour at room temperature. Membranes were washed in TBS-T for 4×10 minutes and in TBS for 1×10-minute wash. Proteins were visualized using Odyssey® infrared imaging system. Protein expression was quantified using Image Studio Lite (Version 5.2) and expression intensities were normalized to a house keeping protein, α-Tubulin or β-actin.

BDNF = assay: Western blot of BDNF in brain regions, chronic cocaine ± 5-MeO-DMT; assay type: in vivo, Male Wistar rats; settings: for BDNF expression: 24 h; for BDNF levels: 120 h
Text: as §1, §2, §3, §4, §5

[1] = acute administration in animals; cited from earlier work
5-HT2Rs = settings: canonical signaling activity measured; read-out: affinity for the 5-HT2Rs; cited from earlier work

COc1ccc2[nH]cc(CCN(C)C)c2c1 [5-MeO-DMT, 5-methoxy-N,N-dimethyltryptamine]
ΔFosB expression (ΔFosB; PFC, 24 h, cocaine alone or 5-MeO-DMT alone): Neither treatment changes expression alone
ΔFosB expression (ΔFosB; PFC, 24 h, cocaine+10 mg/kg 5-MeO-DMT): increases expression relative to 10 mg/kg 5-MeO-DMT alone
ΔFosB expression (ΔFosB; PFC, 24 h, cocaine+20 mg/kg 5-MeO-DMT (increase seen with 10 mg/kg)): not replicated
ΔFosB expression (ΔFosB; amygdala, 24 h, 5-MeO-DMT alone): no effect
ΔFosB expression (ΔFosB; amygdala, 24 h, cocaine+20 mg/kg 5-MeO-DMT): normalized levels in the cocaine treated animals comparable to the control group
ΔFosB expression (ΔFosB; amygdala, 120 h, 20 mg/kg 5-MeO-DMT relative to control): dose-dependent increase
ΔFosB expression (ΔFosB; dorsal striatum, 24 h, 5-MeO-DMT alone): does not regulate the expression
ΔFosB expression (ΔFosB; dorsal striatum, 24 h, cocaine+10 mg/kg 5-MeO-DMT relative to control): significant increase in ΔFosB expression
ΔFosB expression (ΔFosB; dorsal striatum, 24 h, cocaine+20 mg/kg 5-MeO-DMT): returns the cocaine-induced increase in ΔFosB to levels comparable with control
ΔFosB expression (ΔFosB; dorsal striatum, 120 h, irrespective of the treatment group): no change in expression levels
ΔFosB expression (ΔFosB; nucleus accumbens, 24 h, cocaine+20 mg/kg 5-MeO-DMT): expression levels remain elevated in the combo group relative to control
ΔFosB expression (ΔFosB; nucleus accumbens, 24 h, saline+10 mg/kg 5-MeO-DMT): increased
ΔFosB expression (ΔFosB; nucleus accumbens, 24 h, saline+20 mg/kg 5-MeO-DMT): increased
ΔFosB expression (ΔFosB; nucleus accumbens, 120 h, 5-MeO-DMT alone): does not persist to 120 hours
BDNF expression (BDNF; PFC, cocaine+10 mg/kg 5-MeO-DMT relative to saline+vehicle): significant decrease in BDNF expression
BDNF expression (BDNF; PFC, cocaine+20 mg/kg 5-MeO-DMT relative to saline+vehicle): significant decrease in BDNF expression
BDNF expression (BDNF; hippocampus, any of the treatment groups): no change in BDNF expression
BDNF levels (BDNF; hippocampus, 10 mg/kg 5-MeO-DMT alone): no effect alone
BDNF levels (BDNF; hippocampus, 20 mg/kg 5-MeO-DMT alone): significant decrease in BDNF levels
BDNF levels (BDNF; hippocampus, cocaine+10 mg/kg 5-MeO-DMT): does not affect the cocaine-induced decrease in expression levels
BDNF levels (BDNF; hippocampus, cocaine+20 mg/kg 5-MeO-DMT): restores BDNF levels to those seen in the control group
acute toxic signs [1]: dose-dependently produce ataxia, mydriasis, head nodding, tremor, convulsion and shivering
Ki (5-HT2Rs): > 1000 nM
